# Measured values: US9023844B2, “Heterocyclylpyri (mi) dinylpyrazole as fungicidals” (Bayer Intellectual Property GmbH, priority 2011, dated 2015)
# Like-named read-outs stand apart in the source and are kept apart here.
# Legend:
# [1] = Determination of log P values by HPLC on a reverse phase column (C18), EEC-Directive 79/831 Annex V.A8 (Methods A, B, C); type: physicochemical; details: for chromatographic logP: reverse phase C18 HPLC column
# Summary of the method: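 LogP was determined by C18 reverse-phase HPLC/UPLC with acetonitrile/water eluents containing formic acid. Method A used a 10–95% acetonitrile gradient over 4.25 min at 55 °C and 2.0 mL/min. Method B used 5–95% over 1.70 min at 55 °C and 2.0 mL/min, and Method C used 10–95% over 3.25 min at 40 °C and 0.8 mL/min, with MS detection.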
# [2] = test system: Fusarium graminearum; type: in vivo; details: in vivo
# [3] = test system: Uromyces appendiculatus; test: Example B: Uromyces test (beans) / preventive; type: in vivo; details: in vivo
# [4] = test system: Leptosphaeria nodorum; test: Example C: Leptosphaeria test (wheat) / preventive; type: in vivo; details: in vivo
# [5] = test system: Pyricularia oryzae; type: in vivo
# [6] = test system: Puccinia recondita; test: Example E: Puccinia test (wheat) / preventive; type: in vivo; details: in vivo
# [7] = test system: Sphaerotheca fuliginea; test: Example A: Sphaerotheca test (cucumber) / preventive; type: in vivo
# [8] = test system: Septoria tritici; test: Example J: Septoria tritici test (wheat) / preventive; type: in vivo; details: in vivo
# [9] = test system: Fusarium nivale (var. majus); test: Example K: Fusarium nivale (var. majus) test (wheat) / preventive; type: in vivo; details: 500 ppm of active ingredient, preventive spray, evaluated 5 days after inoculation
# Procedure: After the spray coating has been dried, the plants are slightly injured by using a sandblast and afterwards they are sprayed with a conidia suspension of Fusarium nivale (var. majus).
# The test is evaluated 5 days after the inoculation.
# [10] = test system: Pyrenophora teres; test: Example D: Pyrenophora test (barley) / preventive; type: in vivo
# [11] = test system: DON/Acetyl-DON production by Fusarium graminearum; test: microbe, parasite or virus in culture; type: cell-based; details: at 50 μM
# [12] = test system: Fusarium graminearum; test: microbe, parasite or virus in culture; type: cell-based; details: for Growth inhibition of Fusarium graminearum in %: at 50 μM
# [13] = test system: Venturia inaequalis; test: Example I: Venturia test (apples) / preventive; details: 100 ppm of active ingredient, preventive spray, evaluated 10 days after inoculation
# Procedure: After the spray coating has dried on, the plants are inoculated with an aqueous conidia suspension of the causal agent of apple scab (Venturia inaequalis) and then remain for 1 day in an incubation cabinet at approximately 20° C. and a relative atmospheric humidity of 100%.
# The plants are then placed in a greenhouse at approximately 21° C. and a relative atmospheric humidity of approximately 90%.
# The test is evaluated 10 days after the inoculation.
# [14] = test system: Phytophthora infestans; type: in vivo
# [15] = test system: Plasmopara viticola; test: Example H: Plasmopara test (grapevines) / preventive; type: in vivo; details: in vivo
# [16] = Method B (HPLC, reverse phase C18)
# [17] = Method C (HPLC, reverse phase C18)
Compound,"LogP [1, 16]",efficacy [2] [%],efficacy [3] [%],efficacy [4] [%],efficacy ([5]; in vivo) [%],efficacy [6] [%],efficacy ([7]; in vivo) [%],efficacy [8] [%],efficacy [9] [%],efficacy ([10]; in vivo) [%],efficacy [13] [%],"LogP [1, 17]",efficacy [15] [%],further results
CC(C)(C)CC(=O)Nc1cc(-c2c(-c3ccc(F)cc3)nn3c2OCCC3)ccn1 [Example 34],2.04,86,94,90,94,100,95,88,75,100,,,,
O=C(Nc1cc(-c2c(-c3ccc(F)cc3F)nn3c2OCCC3)ccn1)C1CC1 [Example 36],1.42,100,92,90,94,100,100,88,88,95,,,,
O=C(Nc1cc(-c2c(-c3ccc(F)cc3F)nn3c2OCCC3)ccn1)C1CCOCC1 [Example 43],1.39,100,92,70,94,100,100,88,88,95,,,,Inhibition of DON/AcDON in % [11]: 100%; Growth inhibition of Fusarium graminearum in % [12]: 89%
O=C(CC(F)(F)F)Nc1cc(-c2c(-c3ccc(F)cc3F)nn3c2OCCC3)ccn1 [Example 46],2.13,86,94,,94,100,,88,,90,,,,
"CC(=O)Nc1cc(-c2c(-c3ccccc3)nn3c2NCCC3)ccn1 [Example 55, N-[4-(2-phenyl-4,5,6,7-tetrahydropyrazolo[1,5-a]pyrimidin-3-yl)pyridin-2-yl]acetamide]",,,,,,,,,,,93,,,"chromatographic logP ([1]; Method C (HPLC, reverse phase C18), read-out: LogP): 1.13; chromatographic logP ([1]; pH 2.7, values in the synthesis examples, HPLC, reverse phase C18, read-out: log P (pH 2.7)): 1.13; inhibition at 50 µM ([11]; Fusarium graminearum, read-out: Inhibition of DON/AcDON in %): 100%; efficacy ([5]; 500 ppm of active ingredient, rice, preventive spray, evaluated 7 days after inoculation): 70%; efficacy ([14]; 100 ppm of active ingredient, tomatoes, preventive spray, evaluated 3 days after inoculation): 91%; efficacy ([7]; 500 ppm of active ingredient, cucumber, preventive spray, evaluated 7 days after inoculation): 88%; inhibition at 50 µM ([12]; Fusarium graminearum, read-out: Growth inhibition of Fusarium graminearum in %): 100%; efficacy ([10]; 500 ppm of active ingredient, barley, preventive spray, evaluated 7-9 days after inoculation): 90%"
CC(=O)Nc1cc(-c2c(-c3ccc(F)cc3)nn3c2OC[Si](C)(C)C3)ccn1 [Example 61],,,84,78,70,75,,,,95,96,2.01,100,efficacy ([14]; in vivo): 71%
CC(C)C(=O)Nc1cc(-c2c(-c3ccc(F)cc3)nn3c2OC[Si](C)(C)C3)ccn1 [Example 76],,86,94,75,90,95,95,86,100,95,100,2.14,100,
CCC(=O)Nc1cc(-c2c(-c3ccc(F)cc3)nn3cccnc23)ccn1 [Example 79],,,,,,,80,,,100,96,1.91,88,efficacy ([14]; in vivo): 95%
C[Si]1(C)COc2c(-c3ccnc(NC(=O)C4CC4)c3)c(-c3ccc(F)cc3)nn2C1 [Example 81],,100,94,75,95,100,98,88,100,90,99,2.18,100,
O=C(C1CC1)N(C(=O)C1CC1)c1cc(-c2c(-c3ccc(F)cc3)nn3cccnc23)ccn1 [Example 84],,83,,,90,,88,88,100,90,,2.94,,
CC(C)C(=O)Nc1cc(-c2c(-c3ccsc3)nn3c2OC[Si](C)(C)C3)ccn1 [Example 101],,,75,80,80,,,,,100,,2.11,,Inhibition of DON/AcDON in % [11]: 100%; Growth inhibition of Fusarium graminearum in % [12]: 93%
